Results as given in publication PMC10603954, “Bacterial Tyrosinase Inhibition, Hemolytic and Thrombolytic Screening, and In Silico Modeling of Rationally Designed Tosyl Piperazine-Engrafted Dithiocarbamate Derivatives” (Biomedicines, 2023).
Where two headings read alike, the source gives them in different places.

Tests used:
clot = assay: Thrombolytic activity (clot lysis); design: species or system albino mice; conditions: 100 µL sample in DMSO, 37 °C, 3 h
Excerpt: Blood samples were collected from albino mice and relocated to numerous cleaned and weighed-up eppendorf tubes. […] Blood serum was cast-off from these tubes and weighed in the eppendorf tubes to calculate the preliminary weight of the clot (clot weight = weight of the eppendorf with the clot minus the weight of the empty eppendorf). […] In this methodology, ABTS was used as a positive control, while water was used as a negative control. Serum was again removed and weighed in the eppendorf tubes to measure clot lysis.

[1] = target: bacterial tyrosinase (Bacillus subtilis NA2); design: method as in PMID 36142889; conditions: reference standard; read-out: IC50 (µM) Tyrosinase Inhibition; cited from earlier work
Tyrosinase = conditions: Figure 3; no reference given; read-out: Tyrosinase inhibtors IC50; cited from earlier work
[2] = target: bacterial tyrosinase (Bacillus subtilis NA2); assay: Tyrosinase inhibition, spectrophotometric L-Dopa assay; assay type: biochemical; conditions: for IC50: bacterial tyrosinase, L-Dopa substrate, PBS pH 6.8; for optical density at varied incubation times: incubation 10, 20 and 30 min (Figure 6)
Description: IC50 values were obtained using a spectrophotometer assay. The protocol involved the addition of 2 mL of 1/2 mM L-Dopa in a 67.0 mM PBS (phosphate buffer saline) solution of pH 6.8 to the 800 µL solution of target molecules in DMSO. A total of 0.1 mL of the enzyme solution (tyrosinase) was dissolved in this mixture, and the starting rate of linear increase was measured in the optical density after 10, 20, and 30 min of incubation time, respectively. Thus, optical density increases or decreases with the presence of dopachrome.
The inhibition potential of these derivatives was also studied at varied incubation times.

Hemolytic activity = assay type: cell-based, albino mice; conditions: albino, mouse, red blood cells (RBC pellet from blood), pH 7.4; 20 µL sample (10 mg/mL) with 180 µL RBC, 37 °C, half an hour
Description: A blood sample of 5 mL of volume from albino mice was taken and subjected to centrifugation at 1000 rpm for 5 min. RBC pellets were secluded and splashed 3–4 times using chilled buffer solutions that had pH values of 7.4, such as the phosphate buffer saline (PBS). A solution sample in a volume of 20 µL (10 mg/mL) was taken and added to a 180 µL RBC pellet. […] A sample tube was taken from the incubator and lowered to room temperature in an ice bath for 5 min. The sample was again centrifuged at 13,000 rpm for 5 min. A total of 100 µL of supernatant was collected from each tube and diluted with the ice-cold phosphate buffered saline.

| Compound | % Thrombolysis (clot) [%] | IC50 [1] [µM] | IC50 (Tyrosinase) [µM] | IC50 [2] [µM] | optical density at varied incubation times [2] | hemolysis at 0.5 h, 1 mg/mL (Hemolytic activity) [%] | melting point [°C] |
| --- | --- | --- | --- | --- | --- | --- | --- |
| CCn1c(=NN=c2sc3cc(S(=O)(=O)O)ccc3n2CC)sc2cc(S(=O)(=O)O)ccc21 [ABTS, 2,2′-azino-bis(3-ethylbenzothiazoline-6-sulfonic acid), reference compound] | 80 |  |  |  |  |  |  |
| O=C1O[C@H]([C@@H](O)CO)C(O)=C1O [Ascorbic Acid] |  | 11.5 ± 1 |  |  |  |  |  |
| O=C(c1ccccc1)N1CCN(Cc2ccc(F)cc2)CC1 [Compound 2d] |  |  | 13.3 |  |  |  |  |
| O=C(c1cccc(Cl)c1[N+](=O)[O-])N1CCN(Cc2ccc(F)cc2)CC1 [Compound 2e] |  |  | 0.18 |  |  |  |  |
| O=S(=O)(c1ccc(CN2CCN(c3ccccc3)CC2)cc1)N1CCCCC1 [Compound 2f] |  |  | 0.06 |  |  |  |  |
| Cc1ccc(NC(=O)CCCN2CCN(C/C=C/c3ccccc3)CC2)c(C)c1 [Compound 2g] |  |  | 0.01 |  |  |  |  |
| COc1cccc(/C=C/C(=O)N2CCN(c3ccc(F)c(Cl)c3)CC2)c1Cl [Compound 2h] |  |  | 0.12 |  |  |  |  |
| Cc1ccc(S(=O)(=O)N2CCN(C(=S)SCC(=O)Nc3ccccc3)CC2)cc1 [Compound 4a, 2-Oxo-2-(phenylamino)ethyl 4-tosylpiperazine-1-carbodithioate] | 62.3 ± 0.41 |  |  | 34.8 ± 0.99 | linear decrease in optical density | 0.55 ± 0.03 |  |
| Cc1ccc(S(=O)(=O)N2CCN(C(=S)SCC(=O)Nc3ccccc3Cl)CC2)cc1 [Compound 4b, 2-((2-Chlorophenyl)amino)-2-oxoethyl 4-tosylpiperazine-1-carbodithioate] | 54.43 ± 0.23 |  |  | 8.01 ± 0.11 | highest optical density | 0.29 ± 0.01 | 180 |
| Cc1ccc(S(=O)(=O)N2CCN(C(=S)SCC(=O)Nc3ccccc3F)CC2)cc1 [Compound 4c, 2-((2-Fluorophenyl)amino)-2-oxoethyl 4-tosylpiperazine-1-carbodithioate] | 56.76 ± 0.15 |  |  | 8.1 ± 0.3 |  | 6.6 ± 0.37 |  |
| COc1ccc(NC(=O)CSC(=S)N2CCN(S(=O)(=O)c3ccc(C)cc3)CC2)cc1 [Compound 4d, 2-((4-Methoxyphenyl)amino)-2-oxoethyl 4-tosylpiperazine-1-carbodithioate] | 52.4 ± 0.2 |  |  | 6.88 ± 0.11 |  | 15.6 ± 0.5 | 175 |
| Cc1ccc(S(=O)(=O)N2CCN(C(=S)SCC(=O)Nc3ccc(Cl)cc3)CC2)cc1 [Compound 4e, 2-((4-Chlorophenyl)amino)-2-oxoethyl 4-tosylpiperazine-1-carbodithioate] | 67.3 ± 0.2 |  |  | 11.1 ± 0.4 |  | 7.5 ± 0.4 |  |
| Cc1ccc(S(=O)(=O)N2CCN(C(=S)SCC(=O)Nc3ccc(F)cc3)CC2)cc1 [Compound 4f, 2-((4-Fluorophenyl)amino)-2-oxoethyl 4-tosylpiperazine-1-carbodithioate] | 56.53 ± 0.55 |  |  | 10.3 ± 0.26 |  | 4.53 ± 0.35 |  |
| Cc1ccc(S(=O)(=O)N2CCN(C(=S)SCC(=O)Nc3ccc(C)cc3C)CC2)cc1 [Compound 4g, 2-((2,4-Dimethylphenyl)amino)-2-oxoethyl 4-tosylpiperazine-1-carbodithioate] | 55.26 ± 0.15 |  |  | 7.24 ± 0.15 | linear decrease in optical density | 1.53 ± 0.35 | 185 |
| COc1ccc(OC)c(NC(=O)CSC(=S)N2CCN(S(=O)(=O)c3ccc(C)cc3)CC2)c1 [Compound 4h, 2-((2,5-Dimethoxyphenyl)amino)-2-oxoethyl 4-tosylpiperazine-1-carbodithioate] | 60.83 ± 0.14 |  |  | 13.25 ± 0.11 | linear decrease in optical density | 11.3 ± 0.22 | 190 |
| Cc1ccc(S(=O)(=O)N2CCN(C(=S)SCC(=O)Nc3ccc(Cl)c(Cl)c3)CC2)cc1 [Compound 4i, 2-((3,4-Dichlorophenyl)amino)-2-oxoethyl 4-tosylpiperazine-1-carbodithioate] | 54.38 ± 0.53 |  |  | 19.2 ± 0.47 | linear decrease in optical density | 12.8 ± 0.35 |  |
| Cc1ccc(S(=O)(=O)N2CCN(C(=S)SCC(=O)Nc3ccc(C)c(C)c3)CC2)cc1 [Compound 4j, 2-((3,4-Dimethylphenyl)amino)-2-oxoethyl 4-tosylpiperazine-1-carbodithioate] | 56.6 ± 0.23 |  |  | 11.11 ± 0.1 | linear decrease in optical density | 2.56 ± 0.3 |  |
| O=c1cc(CO)occ1O [Kojic Acid, Kojic acid, reference compound] |  |  |  | 30.3 ± 0.75 |  |  |  |
